Reference: PMC10468298, “Umami taste perception and preferences of the domestic cat (Felis catus), an obligate carnivore” (Chemical Senses, 2023)
Read-outs that look alike come from different tables or passages of the source.

Columns and labels:
cats [1] = test: 2-bottle taste choice test, cat water panel, 18-h exposure; assay type: in vivo, domestic cat (Felis catus)
Description: The minimum panel size was n = 14, but only for one study with 80 mM MSG; in all other cases, the minimum panel size was n = 21. The maximum panel size was n = 24. […] For those cases, we have also reported the number of unique cats, as some cats were present in more than one study. All cats on the panel had previously been habituated and screened for suitability to perform this type of study. […] The cats were re-homed once they completed their tenure at the Waltham Petcare Science Institute, as per standard Waltham practice.
Solutions were made with deionized water (Purite, UK). […] In some cases, salts were purchased instead of the pure compound due to solubility, stability, or availability. For all the solutions, the pH range spanned approximately 5–8.
Choice tests for the taste compound solutions at specific concentrations were run over an 18-h period using a 2-bottle testing apparatus. […] All animal studies conformed with the Mars Animal Research Policy (www.Mars.com) and were approved by the Waltham Animal Welfare and Ethical Review Body.
Using a bespoke statistical analysis toolkit, based on R software (R Foundation, Vienna, Austria), a mixed model analysis was performed on the difference in intake (g) between water solutions, including cat (random) as a factor where appropriate. This was used to test the mean intake difference versus 0, i.e. no difference, at a 5% significance level. The mean difference in intake was reported with a 95% confidence interval. Any data errors (e.g. following manual error such as solution spillage, overflow) were removed from the final data set for analysis.

cats [2] = test: Taste choice test, cat water panel, 1-hr exposure; assay type: in vivo, domestic cat (Felis catus)
Description: All taste choice tests with 1-hr exposure period were run as outlined in the Materials and Methods, with the following differences. The minimum panel size was n = 24 and the maximum panel size was n = 25. […] The cats were water-restricted for 1-hr prior to the 1-hr water exposure period, with their first meal given in the last 20-min of the water restriction. 50 mL of each test solution was offered to the cats in round water bowls with a maximum capacity 150 mL (Flyte So Fancy, UK), which were held in bespoke bowl holders (TECHNIK – A Division of Syspal Ltd., UK).

cat Tas1r1-Tas1r3 [3] = molecular target: T1, cat Tas1r1-Tas1r3 (Felis catus, UniProt A0ABI7Z2I4); test: Calcium mobilization assay (FLIPR) in HEK293T cells expressing cat Tas1r1-Tas1r3 and mGα15i1; conditions: for Activity as agonist or enhancer of the cat umami receptor: alone and with 0.2 mM IMP
T1 sequence (A0ABI7Z2I4 entry or part of it): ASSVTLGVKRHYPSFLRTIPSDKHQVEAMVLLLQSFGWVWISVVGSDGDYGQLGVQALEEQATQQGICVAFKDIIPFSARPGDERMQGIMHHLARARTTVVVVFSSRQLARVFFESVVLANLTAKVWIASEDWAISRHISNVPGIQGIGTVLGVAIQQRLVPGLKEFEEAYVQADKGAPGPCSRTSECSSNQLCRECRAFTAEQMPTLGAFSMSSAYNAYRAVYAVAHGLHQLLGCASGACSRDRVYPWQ
T1 sequence (Q49KI5 25-865, further chain): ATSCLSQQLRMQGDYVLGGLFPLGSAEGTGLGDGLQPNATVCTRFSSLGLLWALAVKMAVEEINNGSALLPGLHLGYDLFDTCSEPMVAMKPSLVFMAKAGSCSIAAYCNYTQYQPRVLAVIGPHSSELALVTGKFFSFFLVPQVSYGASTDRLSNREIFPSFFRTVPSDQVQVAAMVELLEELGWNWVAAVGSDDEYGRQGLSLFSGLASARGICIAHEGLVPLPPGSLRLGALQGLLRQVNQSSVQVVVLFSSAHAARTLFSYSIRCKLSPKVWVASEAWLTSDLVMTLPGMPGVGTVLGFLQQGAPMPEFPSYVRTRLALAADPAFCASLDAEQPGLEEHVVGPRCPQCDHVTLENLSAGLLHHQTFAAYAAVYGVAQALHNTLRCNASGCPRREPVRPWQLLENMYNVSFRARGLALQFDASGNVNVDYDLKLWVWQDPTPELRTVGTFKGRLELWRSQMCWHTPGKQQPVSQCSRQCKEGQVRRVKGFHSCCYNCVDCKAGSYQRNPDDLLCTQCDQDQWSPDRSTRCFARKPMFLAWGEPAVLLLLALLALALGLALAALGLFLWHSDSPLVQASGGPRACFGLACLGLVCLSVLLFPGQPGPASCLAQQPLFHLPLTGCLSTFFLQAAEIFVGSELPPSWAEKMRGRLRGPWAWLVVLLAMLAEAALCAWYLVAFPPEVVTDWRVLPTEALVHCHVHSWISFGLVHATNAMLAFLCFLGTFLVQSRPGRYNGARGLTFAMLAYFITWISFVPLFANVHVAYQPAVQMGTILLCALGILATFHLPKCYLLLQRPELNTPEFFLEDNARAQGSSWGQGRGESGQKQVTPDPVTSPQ
Description: Cat Tas1r1 and cat Tas1r3 were also stably transfected, but the GeneSwitch system (Invitrogen) was used, resulting in expression which had to be induced by adding 0.1 nM mifepristone to the cells 48 h prior to the experiment. […] Expression constructs were transfected into the HEK293T cell line using Lipofectamine 2000 according to the manufacturer’s recommendations. […] The cell line was maintained in Dulbecco’s MEM High-Glucose supplemented with Glutamax-I (Gibco) and with 10% dialyzed fetal bovine serum, 1% Penicillin/Streptomycin, 100 µg/mL G418, 100 µg/mL Hygromycin, 10 µg/mL Zeocin, 2.5 µg/mL Blasticidin, and 0.5 µg/mL Puromycin.
(§1) These and other test compounds were stored at −20 °C and freshly prepared in the assay buffer on the day of the experiments. […] For the functional expression work, the solubility of amino acids was improved by sonication.
The calcium mobilization experiments were performed using a FLIPR Tetra (Molecular Devices). […] Twenty-four hours later, 0.1 nM mifepristone was added to each well to induce expression of cat Tas1r1 and cat Tas1r3. […] Forty-eight hours after induction with mifepristone, the medium was removed from the cells and 20 μL loading buffer (Tyrode’s buffer + 2 μM Fluo4 AM + 100 μM probenecid) was added, and the plate was incubated for 40 min at 37 °C and then transferred for another 20 min at room temperature. The cells were then washed two times with Tyrode’s buffer using an automated plate washer (Biotek) and incubated for 20 min at room temperature in the dark. The cells were then washed a further two times before being transferred to the FLIPR Tetra.
Concentration–response curves, each with 8 concentration points, were established by plotting signal amplitudes versus agonist concentration. The half maximal effective concentrations (EC50) were identified by nonlinear regression using a variable slope model with the equation Y = Bottom + (X^Hillslope) × (Top-Bottom)/(X^HillSlope + EC50^HillSlope), where Y is the response, and X is the agonist concentration, Top and Bottom are the plateaus in the same units as Y and HillSlope is the Slope factor or Hill slope. All calculations and plots were done using GraphPad Prism 8 (GraphPad Software, CA). […] In these cases, the EC50 was noted as being higher than the maximum concentration used in the assay.

cat Tas1r1-Tas1r3 [4] = molecular target: T1, cat Tas1r1-Tas1r3; design: method as in Toda et al. 2021; conditions: ref Toda et al. 2021, cited from earlier work; for Activation of cat Tas1r1-Tas1r3: tested alone
cats [5] = test system: cats; design: method as in Beauchamp et al. 1977; conditions: 10, 20, 40 and 80 mM versus water, 1-h; ref Beauchamp et al. 1977; cited from earlier work
cat Tas1r1 VFT = test system: cat Tas1r1 VFT; design: method as in Belloir et al. 2017; conditions: intrinsic tryptophan fluorescence; ref Belloir et al. 2017; cited from earlier work
cats [6] = conditions: cited from earlier work; for Behavioral response of cats to the solutions: acidic solutions, ref Beauchamp et al. 1977, McGrane et al. 2013
cats [7] = test system: cats; design: method as in White and Boudreau 1975; conditions: 0.5, 5.0 and 50.0 mM in 50 mM saline versus 50 mM saline, 24-h; ref White and Boudreau 1975; cited from earlier work
[8] = Solubility of amino acids in assay buffer / water; conditions: Tyrode's buffer pH 7.4, sonication
Description: as §1

[9] = amino acid 25 mM versus L-Serine 25 mM
[10] = amino acid 25 mM versus L-Tryptophan 25 mM
[11] = amino acid 25 mM versus L-Asparagine 25 mM

For `Nc1ncnc2c1ncn2[C@@H]1O[C@H](COP(=O)(O)O)[C@@H](O)[C@H]1O` [AMP, Adenosine 5ʹ-monophosphate], the Intake diff. (cats [1]; nucleotide 5 mM versus water) was 25.4 g and the Intake diff. (cats [2]; nucleotide 5 mM versus water) was 20.6 g.
Compound `Nc1ccn([C@@H]2O[C@H](COP(=O)(O)O)[C@@H](O)[C@H]2O)c(=O)n1` [CMP, Cytidine 5ʹ-monophosphate] has an Intake diff. (cats [1]; nucleotide 5 mM versus water) of 69.5 g.
With `Nc1nc2c(ncn2[C@@H]2O[C@H](COP(=O)(O)O)[C@@H](O)[C@H]2O)c(=O)[nH]1` [GMP, Guanosine 5ʹ-monophosphate] the EC50 (cat Tas1r1-Tas1r3 [3]) was 0.32 mM, the “Concentration at which the assay started to respond” value (cat Tas1r1-Tas1r3 [3]; nucleotide alone) was “around 0.1 mM” and the Intake diff. (cats [1]; nucleotide 5 mM versus water) was 78.8 g. For the same compound, the “Concentration at which the assay started to respond” value (cat Tas1r1-Tas1r3 [4]; rat Gα15 chimera) was “around 0.01 mM” and the “Activation of cat Tas1r1-Tas1r3” value (cat Tas1r1-Tas1r3 [4]) was “strongly activated”.
In the case of `NCC(=O)O` [Glycine], the Intake diff. (cats [1]; amino acid 25 mM versus water) is listed as 20.8 g, the “Behavioral response of cats” value (cats [5]) is listed as “indifferent” and the Intake diff. (cats [2]; amino acid 25 mM versus water) is listed as 9.1 g.
For `C[C@H](N)C(=O)O` [L-Alanine, reference compound], the EC50 (cat Tas1r1-Tas1r3 [3]) is given as 15.5 mM, the Intake diff. (cats [1]; amino acid 25 mM versus water) is given as 30.5 g and the “Ligand binding to cat Tas1r1 VFT (conformational change)” value (cat Tas1r1 VFT) is given as “active”. The “Behavioral response of cats” value (cats [5]) was “may be preferred to water” and the Intake diff. (cats [2]; amino acid 25 mM versus water) was 16.9 g.
For `N=C(N)NCCC[C@H](N)C(=O)O` [L-Arginine], the “Ligand binding to cat Tas1r1 VFT (conformational change)” value (cat Tas1r1 VFT) is given as “active”.
`NC(=O)C[C@H](N)C(=O)O` [L-Asparagine] gave an EC50 (cat Tas1r1-Tas1r3 [3]; read-out: wIMP EC50, L-amino acid with 0.2 mM IMP) of 15.7 mM, an Intake diff. (cats [1]; [9]) of 12.0 g and an Intake diff. (cats [1]; [10]) of -20.9 g. It also gave an Intake diff. (cats [1]; amino acid 25 mM versus water) of 35.9 g.
For `N[C@@H](CC(=O)O)C(=O)O` [L-Aspartic acid], the “Activity as agonist or enhancer of the cat umami receptor” value (shortened to “Activity as agonist or enhancer”) (cat Tas1r1-Tas1r3 [3]) is given as “did not respond” and the “Behavioral response of cats to the solutions” value (cats [6]) is given as “avoided”.
In the case of `N[C@@H](CS)C(=O)O` [L-Cysteine], the EC50 (cat Tas1r1-Tas1r3 [3]) is given as 13.1 mM, the Intake diff. (cats [1]; amino acid 25 mM versus water) is given as 48.3 g and the “Ligand binding to cat Tas1r1 VFT (conformational change)” value (cat Tas1r1 VFT) is given as “inactive”. The Intake diff. (cats [2]; amino acid 25 mM versus water) was 27.9 g.
For `N[C@@H](CCC(=O)O)C(=O)O` [L-Glutamic acid], the “Activity as agonist or enhancer” value (cat Tas1r1-Tas1r3 [3]) is listed as “did not respond”, the “Activation of cat Tas1r1-Tas1r3” value (cat Tas1r1-Tas1r3 [4]) is listed as “inactive alone” and the “Behavioral response of cats to the solutions” value (cats [6]) is listed as “avoided”. For the same compound, the “Behavioral response of cats” value (cats [5]) was “avoided”.
`N[C@@H](Cc1c[nH]cn1)C(=O)O` [L-Histidine] showed an EC50 (cat Tas1r1-Tas1r3 [3]) of 9.71 mM, an Intake diff. (cats [1]; [11]) of 77.0 g and an Intake diff. (cats [1]; [9]) of 91.5 g. The Intake diff. (cats [1]; [10]) was 97.0 g, the Intake diff. (cats [1]; amino acid 25 mM versus water) was 43.7 g and the “Ligand binding to cat Tas1r1 VFT (conformational change)” value (cat Tas1r1 VFT) was “active”. The “Behavioral response of cats” value (cats [7]) was “preferred” and the “Behavioral preference of cats” value (cats [6]; 100 mM, ref McGrane et al. 2013) was “significant behavioral preference”.
For `CC[C@H](C)[C@H](N)C(=O)O` [L-Isoleucine], the “Ligand binding to cat Tas1r1 VFT (conformational change)” value (cat Tas1r1 VFT) is listed as “active”.
Compound `CC(C)C[C@H](N)C(=O)O` [L-Leucine] has an EC50 (cat Tas1r1-Tas1r3 [3]) of 31.7 mM, an Intake diff. (cats [1]; amino acid 25 mM versus water) of 36.6 g and an Intake diff. (cats [2]; amino acid 25 mM versus water) of 22.5 g.
For `CSCC[C@H](N)C(=O)O` [L-Methionine], the EC50 (cat Tas1r1-Tas1r3 [3]) was over 30 mM and the Intake diff. (cats [1]; amino acid 25 mM versus water) was 35.8 g.
`N[C@@H](Cc1ccccc1)C(=O)O` [L-Phenylalanine] gave an Intake diff. (cats [1]; amino acid 25 mM versus water) of 34.5 g and an Intake diff. (cats [2]; amino acid 25 mM versus water) of 19.4 g.
`N[C@@H](CO)C(=O)O` [L-Serine] showed an EC50 (cat Tas1r1-Tas1r3 [3]) of 14.1 mM, an Intake diff. (cats [1]; amino acid 25 mM versus water) of 25.3 g and an Intake diff. (cats [2]; amino acid 25 mM versus water) of 18.0 g.
With `N[C@@H](Cc1c[nH]c2ccccc12)C(=O)O` [L-Tryptophan] the EC50 (cat Tas1r1-Tas1r3 [3]) was 6.32 mM, the “Solubility in assay buffer” value [8] was “insoluble at 60 mM” and the Intake diff. (cats [1]; [11]) was 20.9 g. For the same compound, the Intake diff. (cats [1]; [9]) was -11.6 g, the Intake diff. (cats [1]; amino acid 25 mM versus water) was 8.4 g and the “Behavioral response of cats” value (cats [7]) was “avoided”. The Intake diff. (cats [2]; amino acid 25 mM versus water) was 10.0 g.
With `N[C@@H](Cc1ccc(O)cc1)C(=O)O` [L-Tyrosine] the EC50 (cat Tas1r1-Tas1r3 [3]) was 22.2 mM and the Intake diff. (cats [1]; amino acid 2.5 mM versus water) was -1.8 g.
Compound `N[C@@H](CCC(=O)O)C(=O)[O-].[Na+]` [MSG, monosodium glutamate] has an Intake diff. (cats [1]; MSG 20 mM versus water) of 22.2 g and an Intake diff. (cats [1]; MSG 80 mM versus water) of -7.9 g.
With `NCCS(=O)(=O)O` [Taurine] the “Activity as agonist or enhancer” value (cat Tas1r1-Tas1r3 [3]) was “inactive”.
With `O=c1ccn([C@@H]2O[C@H](COP(=O)(O)O)[C@@H](O)[C@H]2O)c(=O)[nH]1` [UMP, Uridine 5ʹ-monophosphate] the Intake diff. (cats [1]; nucleotide 5 mM versus water) was 67.0 g.
Work on `O=c1[nH]c(=O)c2ncn([C@@H]3O[C@H](COP(=O)(O)O)[C@@H](O)[C@H]3O)c2[nH]1` [XMP, Xanthosine 5ʹ-monophosphate] yielded an EC50 (cat Tas1r1-Tas1r3 [3]) of 0.48 mM.
